Reference: article PMC4877593, “Design and Synthesis of Potent in Vitro and in Vivo Anticancer Agents Based on 1-(3′,4′,5′-Trimethoxyphenyl)-2-Aryl-1H-Imidazole” (Scientific Reports, 2016)
Like-named read-outs stand apart in the source and are kept apart here.

Key:
[1] = system: panel of seven human tumor cell lines; conditions: previously published triazole; ref 16d; read-out: IC50 values in the same seven cell lines (range); cited from earlier work
bovine brain tubulin = experiment: Inhibition of tubulin polymerization (turbidimetry); format: biochemical
Procedure: To evaluate the effect of the compounds on tubulin assembly in vitro[22], varying concentrations of compounds were preincubated with 10 μM bovine brain tubulin in glutamate buffer at 30 °C and then cooled to 0 °C. After addition of 0.4 mM GTP (final concentration), the mixtures were transferred to 0 °C cuvettes in a recording spectrophotometer equipped with an electronic temperature controller and warmed to 30 °C. Tubulin assembly was followed turbidimetrically at 350 nm. […] The ability of the test compounds to inhibit colchicine binding to tubulin was measured as described, except that the reaction mixtures contained 1 μM tubulin, 5 μM [^3H]colchicine and 1 or 5 μM test compound.

RS4;11 = experiment: In vitro antiproliferative activity (MTT), RS4;11; format: cell-based; conditions: Homo sapiens, tumor cell proliferation, 72 h, mean ± SE
[2] = system: panel of seven human tumor cell lines; experiment: Antiproliferative activity across the panel of seven human tumor cell lines; format: cell-based
Procedure: (§1) Human T-cell leukemia (CCRF-CEM and Jurkat) and human B-cell leukemia (SEM) cells were grown in RPMI-1640 medium (Gibco, Milano, Italy). Breast adenocarcinoma (MCF7), human cervix carcinoma (HeLa), and human colon adenocarcinoma (HT-29) cells were grown in DMEM medium (Gibco, Milano, Italy), all supplemented with 115 units/mL penicillin G (Gibco, Milano, Italy), 115 μg/mL streptomycin (Invitrogen, Milano, Italy), and 10% fetal bovine serum (Invitrogen, Milano, Italy). Stock solutions (10 mM) of the different compounds were obtained by dissolving them in dimethyl sulfoxide (DMSO). Individual wells of a 96-well tissue culture microtiter plate were inoculated with 100 μL of complete medium containing 8 × 10^3 cells. The plates were incubated at 37 °C in a humidified 5% CO2 incubator for 18 h prior to the experiments. After medium removal, 100 μL of fresh medium containing the test compound at different concentrations was added to each well in triplicate and incubated at 37 °C for 72 h. The percentage of DMSO in the medium never exceeded 0.25%. This was also the maximum DMSO concentration in all cell-based assays described below. […] Different concentrations of the test compounds were added, and viability was determined 72 h later by the MTT test. For cytotoxicity evaluations in resting PBL cultures, non-adherent cells were resuspended (5 × 10^5 cells/mL) and treated for 72 h with the test compounds, as described above.

Jurkat = experiment: In vitro antiproliferative activity (MTT), Jurkat; format: cell-based; conditions: Homo sapiens, tumor cell proliferation, 72 h, mean ± SE
Procedure: as §1

A549 = experiment: In vitro antiproliferative activity (MTT), A549; format: cell-based; conditions: Homo sapiens, tumor cell proliferation, 72 h, mean ± SE
Procedure: as §1

HT-29 = experiment: In vitro antiproliferative activity (MTT), HT-29; format: cell-based; conditions: Homo sapiens, tumor cell proliferation, 72 h, mean ± SE
Procedure: as §1

HL-60 = experiment: In vitro antiproliferative activity (MTT), HL-60; format: cell-based; conditions: Homo sapiens, tumor cell proliferation, 72 h, mean ± SE
MCF-7 = experiment: In vitro antiproliferative activity (MTT), MCF-7; format: cell-based; conditions: Homo sapiens, MCF7, tumor cell proliferation, 72 h, mean ± SE
Procedure: as §1

HeLa = experiment: In vitro antiproliferative activity (MTT), HeLa; format: cell-based; conditions: Homo sapiens, tumor cell proliferation, 72 h, mean ± SE
Procedure: as §1

[3] = system: HCT-15 (human colon adenocarcinoma); conditions: cited from earlier work
[4] = system: NCI-H460 (human lung large cell carcinoma); conditions: cited from earlier work
tubulin = conditions: read-out: IC50 inhibitor of tubulin polymerization; cited from earlier work
[5] = tubulin at 10 μM, 20 min incubation, read-out: Tubulin assembly IC50 ± S.D.
[6] = average over the seven cell lines, read-out: average IC50 values
[7] = range over seven cancer cell lines, read-out: IC50 values in the seven cell lines (range)
[8] = repeated beside the calculated energies, read-out: inhibition of tubulin polymerization IC50 (Table 4)

Molecule | IC50 (bovine brain tubulin; [5]) | IC50 (RS4;11) | IC50 [2, 6] | IC50 (Jurkat) | IC50 (A549) | IC50 (HT-29) | IC50 (HL-60) | IC50 (MCF-7) | IC50 (HeLa) | IC50 [2, 7] | melting point | IC50 (bovine brain tubulin; [8]) | IC50 [1] | IC50 [3] | IC50 [4] | IC50 (tubulin)
1-(3′,4′,5′-trimethoxyphenyl)-5-(3′-chloro-4′-ethoxyphenyl) triazole | – | – | – | – | – | – | – | – | – | – | – | – | 0.003 to 0.02 µM | – | – | –
COc1ccc(/C=C\c2cc(OC)c(OC)c(OC)c2)cc1O [CA-4, Combretastatin A-4, reference compound] | […] | 0.37 ± 0.1 µM | 0.523 µM | 0.0008 ± 0.0002 µM | 3.1 ± 0.1 µM | 0.18 ± 0.03 µM | 0.001 ± 0.0002 µM | 0.005 ± 0.0006 µM | 0.004 ± 0.001 µM | – | – | – | – | – | – | –
COc1cc(-n2ccnc2-c2ccc(N(C)C)cc2)cc(OC)c1OC [Compound 3a, 1-(3′,4′,5′-trimethoxyphenyl)-2-(4′-N,N-dimethylaminophenyl)-1H-imidazole] | – | – | – | – | – | – | – | – | – | – | – | – | – | 0.08 µM | 0.27 µM | 35 µM
COc1ccc(-c2nccn2-c2cc(OC)c(OC)c(OC)c2)cc1 [Compound 3b, reference compound] | – | 5.4 ± 0.95 µM | 1.71 µM | 0.133 ± 0.031 µM | 1.01 ± 0.104 µM | 0.233 ± 0.052 µM | 4.77 ± 0.12 µM | 0.23 ± 0.055 µM | 0.21 ± 0.0102 µM | 0.21 to 5.4 µM | – | – | – | 1.6 µM | 1.1 µM | –
CCc1ccc(-c2nccn2-c2cc(OC)c(OC)c(OC)c2)cc1 [Compound 4b, 2-(4′-Ethylphenyl)-1-(3′,4′,5′-trimethoxyphenyl)-1H-imidazole] | – | 5.68 ± 0.259 µM | – | 4.57 ± 0.758 µM | 7 ± 1.15 µM | 1.4 ± 0.2 µM | 4.8 ± 0.451 µM | 2.09 ± 0.374 µM | 1.99 ± 0.126 µM | – | 130 to 132 °C | – | – | – | – | –
COc1cc(-n2ccnc2-c2cc(C)c(OC)c(C)c2)cc(OC)c1OC [Compound 4h, 2-(4′-Methoxy-3′,5′-dimethylphenyl)-1-(3′,4′,5′-trimethoxyphenyl)-1H-imidazole] | – | > 10 µM | – | > 10 µM | > 10 µM | > 10 µM | 3.47 ± 0.467 µM | > 10 µM | 9.16 ± 1.59 µM | – | 153 to 155 °C | – | – | – | – | –
COc1cc(-n2ccnc2-c2ccc(OC(F)(F)F)cc2)cc(OC)c1OC [Compound 4j, 1-(3′,4′,5′-Trimethoxyphenyl)-2-(4′-(trifluoromethoxy)phenyl)-1H-imidazole] | – | > 10 µM | – | 6.63 ± 0.338 µM | > 10 µM | > 10 µM | > 10 µM | > 10 µM | > 10 µM | – | 125 to 127 °C | – | – | – | – | –
CCOc1ccc(-c2nccn2-c2cc(OC)c(OC)c(OC)c2)cc1 [Compound 4k, 2-(4′-Ethoxyphenyl)-1-(3′,4′,5′-trimethoxyphenyl)-1H-imidazole] | 0.63 µM | 0.0347 µM | 0.0071 µM | 0.0012 ± 0.0005 µM | 0.0019 ± 0.001 µM | 0.0018 ± 0.0008 µM | 0.0048 ± 0.0019 µM | 0.0015 ± 0.0002 µM | 0.0037 ± 0.00012 µM | 0.0018 to 0.0347 µM | 132 to 134 °C | 0.63 µM | – | – | – | –
CCSc1ccc(-c2nccn2-c2cc(OC)c(OC)c(OC)c2)cc1 [Compound 4p, 2-(4′-(Ethylthio)phenyl)-1-(3′,4′,5′-trimethoxyphenyl)-1H-imidazole] | – | 0.085 ± 0.02 µM | – | 0.127 ± 0.027 µM | 0.228 ± 0.081 µM | 0.174 ± 0.016 µM | 0.012 ± 0.0025 µM | 0.069 ± 0.007 µM | 0.048 ± 0.0025 µM | – | 143 to 145 °C | – | – | – | – | –
CCCOc1ccc(-c2nccn2-c2cc(OC)c(OC)c(OC)c2)cc1 [Compound 4q, 1-(3′,4′,5′-Trimethoxyphenyl)-2-(4′-n-propoxyphenyl)-1H-imidazole] | 1.4 ± 0.1 µM | 0.091 ± 0.0089 µM | – | 0.042 ± 0.0039 µM | 0.063 ± 0.0181 µM | 0.015 ± 0.0013 µM | 0.063 ± 0.0176 µM | 0.0017 ± 0.0006 µM | 0.0029 ± 0.0008 µM | – | – | 1.4 µM | – | – | – | –

Continued, in another order:

IC50 (bovine brain tubulin; [5]) | IC50 (RS4;11) | IC50 [2, 6] | IC50 (Jurkat) | IC50 (A549) | IC50 (HT-29) | IC50 (HL-60) | IC50 (MCF-7) | IC50 (HeLa) | IC50 [2, 7] | melting point | IC50 (bovine brain tubulin; [8]) | Molecule | IC50 [1] | IC50 [3] | IC50 [4] | IC50 (tubulin)
– | > 10 µM | – | 0.76 ± 0.136 µM | 4.73 ± 0.328 µM | 1.92 ± 0.354 µM | 2.1 ± 0.252 µM | 2.8 ± 0.721 µM | 1.26 ± 0.172 µM | – | 142 to 144 °C | – | COc1cc(-n2ccnc2-c2ccc(C)cc2)cc(OC)c1OC [Compound 4a, 1-(3′,4′,5′-Trimethoxyphenyl)-2-p-tolyl-1H-imidazole] | – | – | – | –
– | 0.8 ± 0.058 µM | – | 0.407 ± 0.024 µM | 5.6 ± 0.352 µM | 0.33 ± 0.036 µM | 0.333 ± 0.041 µM | 1.36 ± 0.35 µM | 0.337 ± 0.048 µM | – | 158 to 160 °C | – | COc1cc(-n2ccnc2-c2ccc(SC)cc2)cc(OC)c1OC [Compound 4c, 1-(3′,4′,5′-Trimethoxyphenyl)-2-(4′-(methylthio)phenyl)-1H-imidazole] | – | – | – | –
– | 0.217 ± 0.046 µM | – | 0.09 ± 0.023 µM | 0.121 ± 0.056 µM | 0.112 ± 0.015 µM | 0.029 ± 0.0095 µM | 0.074 ± 0.017 µM | 0.051 ± 0.0065 µM | – | – | – | COc1ccc(-c2nccn2-c2cc(OC)c(OC)c(OC)c2)cc1F [Compound 4d, 2-(3′-Fluoro-4′-methoxyphenyl)-1-(3′,4′,5′-trimethoxyphenyl)-1H-imidazole] | – | – | – | –
– | 0.715 ± 0.148 µM | – | 0.365 ± 0.025 µM | 2.6 ± 0.422 µM | 0.647 ± 0.083 µM | 0.453 ± 0.014 µM | 0.666 ± 0.231 µM | 0.263 ± 0.039 µM | – | 176 to 178 °C | – | COc1ccc(-c2nccn2-c2cc(OC)c(OC)c(OC)c2)cc1Cl [Compound 4e, 2-(3′-Chloro-4′-methoxyphenyl)-1-(3′,4′,5′-trimethoxyphenyl)-1H-imidazole] | – | – | – | –
– | 0.475 ± 0.106 µM | – | 0.136 ± 0.038 µM | 4.72 ± 0.509 µM | 0.377 ± 0.033 µM | 0.413 ± 0.027 µM | 0.509 ± 0.025 µM | 0.33 ± 0.025 µM | – | 128 to 130 °C | – | COc1ccc(-c2nccn2-c2cc(OC)c(OC)c(OC)c2)cc1C [Compound 4f, 2-(4′-Methoxy-3′-methylphenyl)-1-(3′,4′,5′-trimethoxyphenyl)-1H-imidazole] | – | – | – | –
– | 2.57 ± 0.784 µM | – | 4.93 ± 0.536 µM | > 10 µM | > 10 µM | > 10 µM | > 10 µM | 0.623 ± 0.098 µM | – | – | – | COc1cc(-c2nccn2-c2cc(OC)c(OC)c(OC)c2)ccc1C [Compound 4g, 2-(4′-Methyl-3′-methoxyphenyl)-1-(3′,4′,5′-trimethoxyphenyl)-1H-imidazole] | – | – | – | –
– | > 10 µM | – | > 10 µM | > 10 µM | > 10 µM | 3.93 ± 0.517 µM | > 10 µM | > 10 µM | – | – | – | COc1ccc(-c2nccn2-c2cc(OC)c(OC)c(OC)c2)cc1OC [Compound 4i, 1-(3′,4′,5′-Trimethoxyphenyl)-2-(3′,4′-dimethoxyphenyl)-1H-imidazole] | – | – | – | –
– | > 10 µM | – | > 10 µM | > 10 µM | > 10 µM | > 10 µM | > 10 µM | > 10 µM | – | 121 to 122 °C | – | CCOc1cccc(-c2nccn2-c2cc(OC)c(OC)c(OC)c2)c1 [Compound 4l, 2-(3′-Ethoxyphenyl)-1-(3′,4′,5′-trimethoxyphenyl)-1H-imidazole] | – | – | – | –
– | > 10 µM | – | > 10 µM | > 10 µM | > 10 µM | > 10 µM | > 10 µM | > 10 µM | – | 130 to 132 °C | – | CCOc1ccccc1-c1nccn1-c1cc(OC)c(OC)c(OC)c1 [Compound 4m, 2-(2′-Ethoxyphenyl)-1-(3′,4′,5′-trimethoxyphenyl)-1H-imidazole] | – | – | – | –
0.57 µM | 0.0086 ± 0.0011 µM | 0.0072 µM | 0.012 ± 0.0066 µM | 0.014 ± 0.0023 µM | 0.0075 ± 0.0012 µM | 0.0035 ± 0.00073 µM | 0.0034 ± 0.00038 µM | 0.0015 ± 0.00032 µM | 0.0015 to 0.0142 µM | 127 to 129 °C | – | CCOc1ccc(-c2nccn2-c2cc(OC)c(OC)c(OC)c2)cc1F [Compound 4n, 2-(3′-Fluoro-4′-ethoxyphenyl)-1-(3′,4′,5′-trimethoxyphenyl)-1H-imidazole] | – | – | – | –
